In ChEMBL document CHEMBL3414448, “Advances in the discovery of novel antimicrobials targeting the assembly of bacterial cell division protein FtsZ” (Eur J Med Chem, 2015):
pIC50, pKd: −log10 of the molar value. ≈ marks a conversion by molar mass, not a printed value.

How the values were obtained:
HeLa = assay: Cytotoxicity against human HeLa cells; assay type: cell-based
[1] = biological target: T1, Cell division protein FtsZ (Bacillus subtilis (strain 168), UniProt P17865); assay: Binding affinity to Bacillus subtilis FtsZ
T1 sequence (P17865 whole entry): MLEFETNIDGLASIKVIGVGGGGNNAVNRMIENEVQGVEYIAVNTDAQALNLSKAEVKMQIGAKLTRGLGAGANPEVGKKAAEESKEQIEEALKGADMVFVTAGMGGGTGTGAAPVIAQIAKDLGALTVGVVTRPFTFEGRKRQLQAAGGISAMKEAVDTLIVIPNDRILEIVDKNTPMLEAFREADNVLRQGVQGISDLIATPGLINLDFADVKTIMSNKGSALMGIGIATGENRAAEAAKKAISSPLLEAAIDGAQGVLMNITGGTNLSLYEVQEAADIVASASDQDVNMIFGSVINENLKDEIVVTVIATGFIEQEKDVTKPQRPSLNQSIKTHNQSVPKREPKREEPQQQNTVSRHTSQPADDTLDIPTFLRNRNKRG

Bacillus subtilis [2] = assay: Antimicrobial activity against Bacillus subtilis; assay type: functional
[3] = biological target: T2, Cell division protein FtsZ (Escherichia coli K-12, UniProt P0A9A6); assay: Inhibition of Escherichia coli FtsZ
T2 sequence (P0A9A6 whole entry): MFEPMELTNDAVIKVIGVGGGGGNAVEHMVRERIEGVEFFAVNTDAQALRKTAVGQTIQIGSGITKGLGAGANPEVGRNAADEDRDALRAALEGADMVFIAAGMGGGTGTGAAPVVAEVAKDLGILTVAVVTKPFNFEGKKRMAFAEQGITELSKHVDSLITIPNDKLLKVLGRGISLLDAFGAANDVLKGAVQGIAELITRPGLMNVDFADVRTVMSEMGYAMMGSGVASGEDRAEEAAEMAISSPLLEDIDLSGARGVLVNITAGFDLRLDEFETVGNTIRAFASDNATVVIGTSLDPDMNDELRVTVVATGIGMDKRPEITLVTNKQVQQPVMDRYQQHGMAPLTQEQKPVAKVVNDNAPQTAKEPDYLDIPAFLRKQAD

Escherichia coli [4] = assay: Antimicrobial activity against Escherichia coli; assay type: functional
Staphylococcus aureus [5] = assay: Antimicrobial activity against Staphylococcus aureus; assay type: functional
Pseudomonas fluorescens = assay: Antimicrobial activity against Pseudomonas fluorescens; assay type: functional
[6] = Half life in staphylococcal growth media
[7] = Half life in 100% filtered mouse serum; assay type: ADME
Staphylococcus = assay: Antimicrobial activity against Staphylococcus; assay type: functional
[8] = Inhibition of FtsZ (unknown origin) assessed as reduction in enzyme GTPase activity
[9] = Inhibition of FtsZ (unknown origin) assessed as reduction in enzyme assembly
Escherichia coli [10] = assay: Antimicrobial activity against Escherichia coli relative to control; assay type: functional
Bacillus subtilis [11] = assay: Antimicrobial activity against Bacillus subtilis relative to control; assay type: functional
Staphylococcus aureus [12] = assay: Antimicrobial activity against methicillin-resistant Staphylococcus aureus; assay type: functional
[13] = biological target: T2, Cell division protein FtsZ; assay: Inhibition of Escherichia coli FtsZ polymerization
[14] = biological target: T2, Cell division protein FtsZ; assay: Inhibition of Escherichia coli FtsZ GTPase activity
[15] = biological target: T2, Cell division protein FtsZ; assay: Binding affinity to Escherichia coli FtsZ by fluorescence anisotrophy
[16] = system: Mycobacterium tuberculosis; assay: Antimicrobial activity against Mycobacterium tuberculosis; assay type: functional
[17] = biological target: T3, Cell division protein FtsZ (Mycobacterium tuberculosis, UniProt P9WN95); assay: Binding affinity to Mycobacterium tuberculosis FtsZ
T3 sequence (P9WN95 whole entry): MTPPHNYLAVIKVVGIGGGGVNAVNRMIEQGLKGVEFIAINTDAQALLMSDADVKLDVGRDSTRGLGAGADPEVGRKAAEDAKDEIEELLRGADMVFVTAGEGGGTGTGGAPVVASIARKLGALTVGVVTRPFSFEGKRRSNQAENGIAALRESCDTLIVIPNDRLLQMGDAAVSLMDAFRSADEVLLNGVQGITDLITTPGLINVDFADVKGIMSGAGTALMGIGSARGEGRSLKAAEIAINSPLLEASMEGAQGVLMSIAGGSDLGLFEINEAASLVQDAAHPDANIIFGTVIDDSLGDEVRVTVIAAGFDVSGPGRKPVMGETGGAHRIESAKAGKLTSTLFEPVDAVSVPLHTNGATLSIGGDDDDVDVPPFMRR

Bacillus subtilis [18] = assay: Antimicrobial activity against Bacillus subtilis 168; assay type: functional
Enterococcus faecalis = assay: Antimicrobial activity against Enterococcus faecalis; assay type: functional
Enterococcus faecium = assay: Antimicrobial activity against Enterococcus faecium; assay type: functional

O=C1NC(=S)S/C1=C/c1ccc(-c2cccc(C(F)(F)F)c2)o1
pIC50 (HeLa): 4.74
pKd [1]: 5.82
GI50 (Bacillus subtilis [2]): 2 µM

CN(C)CCNc1nc(/C=C/c2ccc(Cl)cc2)nc2cc3ccccc3cc12
pIC50 [3]: 4.92

COc1ccc(/N=C/c2ccc(OC(C)=O)c(OC)c2[N+](=O)[O-])cc1
MIC (Escherichia coli [4]): 1.56 µg/mL (≈ 4.53 µM)
MIC (Staphylococcus aureus [5]): 1.56 µg/mL (≈ 4.53 µM)
MIC (Pseudomonas fluorescens): 1.56 µg/mL (≈ 4.53 µM)
MIC (Bacillus subtilis [2]): 1.56 µg/mL (≈ 4.53 µM)

COc1c(OC(C)=O)ccc(/C=N/c2c(C(C)C)cccc2C(C)C)c1[N+](=O)[O-]
MIC (Escherichia coli [4]): 6.25 µg/mL (≈ 15.7 µM)
MIC (Staphylococcus aureus [5]): 6.25 µg/mL (≈ 15.7 µM)
MIC (Pseudomonas fluorescens): 6.25 µg/mL (≈ 15.7 µM)
MIC (Bacillus subtilis [2]): 6.25 µg/mL (≈ 15.7 µM)

CN1CCC(C(=O)NC(=O)c2c(F)ccc(OCc3nc4cc(Cl)cnc4s3)c2F)CC1
half-life [6]: 8.2 h
half-life [7]: 3.4 min

NC(=O)c1c(F)ccc(OCc2nc3cc(Cl)cnc3s2)c1F
MIC (Staphylococcus): 0.5 µg/mL (≈ 1.41 µM)

COc1ccc2cc3[n+](cc2c1OC)CCc1cc2c(cc1-3)OCO2 [BERBERINE]
pIC50 [8]: 4.80
pIC50 [9]: 5.00

O=C/C=C/c1ccccc1 [CINNAMALDEHYDE]
MIC (Escherichia coli [4]): 1 µg/mL (≈ 7.57 µM)
MIC (Escherichia coli [10]): 1000 µg/mL (≈ 7570 µM)
MIC (Bacillus subtilis [11]): 500 µg/mL (≈ 3780 µM)
MIC (Staphylococcus aureus [12]): 0.25 µg/mL (≈ 1.89 µM)
pIC50 [13]: 5.16
MIC (Bacillus subtilis [2]): 0.5 µg/mL (≈ 3.78 µM)
pIC50 [14]: 5.24

N=C(N)c1ccc(-c2cc3ccc(C(=N)N)cc3[nH]2)cc1 [DAPI]
pKd [15]: 4.78

O=C1C[C@@H](c2ccccc2)Oc2c(Cc3ccccc3O)c(O)c(Cc3ccccc3O)c(O)c21 [DICHAMANETIN]
MIC (Staphylococcus aureus [5]): 0.8 µg/mL (≈ 1.71 µM)
MIC (Bacillus subtilis [2]): 5.01 µg/mL (≈ 10.7 µM)
pIC50 [14]: 4.90

CC(C)c1c(O)ccc2c1CC[C@H]1C(C)(C)CCC[C@]21C [TOTAROL]
MIC (Escherichia coli [4]): > 400 µg/mL
MIC [16]: 16 µg/mL (≈ 55.9 µM)
pIC50 [8]: 4.39
pKd [17]: 4.96
MIC (Staphylococcus aureus [5]): 1.5 µg/mL (≈ 5.24 µM)
MIC (Bacillus subtilis [18]): 0.6 µg/mL (≈ 2.09 µM)

COC(=O)CC1Cc2cc3cc(OC)c(-c4c(OC)cc5cc6c(c(O)c5c4O)C(=O)OC(CC(=O)OC)C6)c(O)c3c(O)c2C(=O)O1 (centres undefined) [VIRIDITOXIN]
MIC (Enterococcus faecalis): 2 µg/mL (≈ 3.02 µM)
MIC (Staphylococcus aureus [5]): 4 µg/mL (≈ 6.04 µM)
MIC (Enterococcus faecium): 2 µg/mL (≈ 3.02 µM)
pIC50 [13]: 4.91
pIC50 [14]: 4.98
